Test results as given in patent US12129265B2, “Therapeutic agents and uses thereof” (Ankh Life Sciences Limited, priority 2020, dated 2024).

What was measured:
[1] = test system: SiHA cells; assay: CellTiter-Glo in vitro cell proliferation assay, Example 8; format: cell-based, Human; details: Homo sapiens, Squamous, 72 hours, read-out: Mean IC50
Summary of the method: (§1)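 In this 3-day viability format, cells were drugged 24 h after plating across 0.0075–100 μM. CellTiter-Glo, mixed 1:1 with sterile water, was applied at the end and luminescence read after 60 min at room temperature.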

[2] = test system: ASPC-1 cells; assay: as above; format: cell-based, Human; details: Homo sapiens, ASPC1; ASPC-1, Pancreatic, 72 hours; read-out: Mean IC50
Summary of the method: as §1

[3] = test system: KMM-1 cells; assay: as above; format: cell-based, Human; details: KMM-1, Human Myeloma, 72 hours; read-out: Mean IC50
Summary of the method: as §1

[4] = test system: HEC-1a cells; assay: as above; format: cell-based, Human; details: Homo sapiens, Endometrial, 72 hours, read-out: Mean IC50
Summary of the method: as §1

[5] = test system: AN3CA cells; assay: as above; format: cell-based, Human; details: Homo sapiens, AN3-CA, Endometrial, 72 hours, read-out: Mean IC50
Summary of the method: as §1

[6] = test system: KMS-11 cells; assay: as above; format: cell-based, Human; details: KMS-11, Human Myeloma, 72 hours; read-out: Mean IC50
Summary of the method: as §1

[7] = test system: BxPC-3 cells; assay: as above; format: cell-based, Human; details: Homo sapiens; BxPC-3, Pancreatic, 72 hours; read-out: Mean IC50
Summary of the method: as §1

[8] = test system: H1650 (EGFR mut) cells; assay: as above; format: cell-based, Human; details: Homo sapiens, NCI-H1650, Non Small Cell Lung, 72 hours, read-out: Mean IC50
Summary of the method: as §1

[9] = test system: A498 cells; assay: as above; format: cell-based, Human; details: Homo sapiens; A498, Renal, 72 hours; read-out: Mean IC50
Summary of the method: as §1

[10] = test system: MDA-MB-231 cells; assay: as above; format: cell-based, Human; details: Homo sapiens; MDA-MB-231, Triple Negative Breast, 72 hours; read-out: Mean IC50
Summary of the method: as §1

[11] = test system: H1975 (EGFR mut) cells; assay: as above; format: cell-based, Human; details: Homo sapiens, NCI-H1975, Non Small Cell Lung, 72 hours, read-out: Mean IC50
Summary of the method: as §1

[12] = test system: MM.1s cells; assay: as above; format: cell-based, Human; details: MM1.S; MM.IS, Human Myeloma, 72 hours; read-out: Mean IC50
Summary of the method: as §1

[13] = test system: L363 cells; assay: as above; format: cell-based, Human; details: L-363; L363, Human Myeloma, 72 hours; read-out: Mean IC50
Summary of the method: as §1

[14] = test system: MDA-MB-468 cells; assay: as above; format: cell-based, Human; details: Homo sapiens; MDA-MB-468, Triple Negative Breast, 72 hours; read-out: Mean IC50
Summary of the method: as §1

[15] = test system: HCC70 cells; assay: as above; format: cell-based, Human; details: Homo sapiens; HCC70, Triple Negative Breast, 72 hours; read-out: Mean IC50
Summary of the method: as §1

[16] = test system: KHM-1B cells; assay: as above; format: cell-based, Human; details: Human Myeloma, 72 hours, read-out: Mean IC50
Summary of the method: as §1

[17] = test system: KMS-27 cells; assay: as above; format: cell-based, Human; details: KMS-27, Human Myeloma, 72 hours; read-out: Mean IC50
Summary of the method: as §1

[18] = test system: OCI-LY3 cells; assay: as above; format: cell-based, Human; details: Homo sapiens; OCI-LY3, Diffuse Large B-Cell Lymphoma, 72 hours; read-out: Mean IC50
Summary of the method: as §1

[19] = test system: MOLP-8 cells; assay: as above; format: cell-based, Human; details: MOLP-8, Human Myeloma, 72 hours; read-out: Mean IC50
Summary of the method: as §1

[20] = test system: H929 cells; assay: as above; format: cell-based, Human; details: NCI-H929; H929, Human Myeloma, 72 hours; read-out: Mean IC50
Summary of the method: as §1

[21] = test system: Human Myeloma, Human Lymphoma, Solid Human tumor and Jeko-1 tumor cell lines; assay: CellTiter-Glo in vitro cell proliferation assay, Example 8, whole panel; format: cell-based; details: 72 hours; cell lines of Table 14
Procedure: (§2) In this Example, in vitro cell proliferation assays were performed using: (1) Human Myeloma tumor cell lines; (2) Human Lymphoma tumor cell lines; (3) Solid Human tumor cell lines; and (4) Parental, Lenalidomide resistant and Bortezomib resistant Jeko-1 Mantle cell Lymphoma tumor cell lines. The compounds tested were three diharmaline compounds, namely the 518B562 (or simply 562), 560, and 561 compounds. In addition, a monoharmaline product designated as 518F014 was also tested. This monoharmaline product had the following structure:
(§3) Each proliferation assay was carried out as follows. The test cells were plated in growth media using a 384-well microtiter plate at 50 μL volume. The cells were incubated for 24 hours at 37° C. in a humidified incubator. After 24 hours of incubation, the test compounds were added to the test wells in DSMO solvent, at concentrations ranging from 0.0075-100 μM. Control wells received equal volumes of DSMO, without compound. Following drugging, the cells were incubated for 72 hours at 37° C. in a humidified incubator. After this exposure, 100 μL of a 1:1 mixture of sterile water and CellTiter-Glo® reagent (Promega) was added to each well. The plates were then incubated for 60 minutes at room temperature, followed by recording the luminescence value of each well using a luminometer as a measure of cell proliferation.

[22] = test system: RXF-393 cells; assay: CellTiter-Glo in vitro cell proliferation assay, Example 8; format: cell-based; details: Homo sapiens; RXF-393, Renal, 72 hours; read-out: Mean IC50
Procedure: as §2, §3

[23] = test system: SU-DHL-4 cells; assay: as above; format: cell-based; details: Homo sapiens; SU-DHL-4, Diffuse Large B-Cell Lymphoma, 72 hours; read-out: Mean IC50
Procedure: as §2, §3

[24] = test system: N87 cells; assay: as above; format: cell-based; details: Homo sapiens; N87, Gastric, 72 hours; read-out: Mean IC50
Procedure: as §2, §3

[25] = test system: SU-DHL-6 cells; assay: as above; format: cell-based; details: Homo sapiens; SU-DHL-6, Diffuse Large B-Cell Lymphoma, 72 hours; read-out: Mean IC50
Procedure: as §2, §3

IC50 [2] [µM]	IC50 [7] [µM]	IC50 [8] [µM]	IC50 [10] [µM]	IC50 [11] [µM]	IC50 [12] [µM]	IC50 [14] [µM]	IC50 [18] [µM]	IC50 [20] [µM]	Structure (SMILES)	IC50 [1] [µM]	IC50 [3] [µM]	IC50 [4] [µM]	IC50 [5] [µM]	IC50 [6] [µM]	IC50 [9] [µM]	IC50 [13] [µM]	IC50 [15] [µM]	IC50 [16] [µM]	IC50 [17] [µM]	IC50 [19] [µM]	also measured
3.62	2.62	2.95	3.89	4.27	2.26	3.75	2.87	4.3	COc1ccc2c3c([nH]c2c1)C(CC(CC1=NCCc2c1[nH]c1cc(OC)ccc21)c1ccccc1)=NCC3 [compound 560]	11.6	5.3	5.1	2.71	4.95	3.34	5.27	5.94	7.58	3.94	2.89	IC50 values compared with the monoharmaline 518F014 compound [21]: significantly lower IC50 values; IC50 [22]: 5.4 µM; IC50 [23]: 3.68 µM; IC50 [24]: 3.71 µM; IC50 [25]: 3.52 µM
2.15	1.6	2.3	1.62	1.84	1.67	2.05	2.38	4.5	COc1ccc2c3c([nH]c2c1)C(CC(CC1=NCCc2c1[nH]c1cc(OC)ccc21)c1ccc(O)c(OC)c1)=NCC3 [compound 562]	5.13	4.04	4.75	1.79	4.93	1.76	2	3.45	3.37	2.1	1.38	IC50 values compared with the monoharmaline 518F014 compound [21]: significantly lower IC50 values; IC50 [22]: 1.79 µM; IC50 [23]: 1.81 µM; IC50 [24]: 1.85 µM; IC50 [25]: 0.819 µM
